Laboratory results: the NIST ThermoML archive (doi:10.1021/je900596d)

Conditions: 323.21 K, Fluid (supercritical or subcritical phases), Vibrating tube method

FC(F)=C(F)C(F)(F)F [hexafluoropropene]
Conditions	mass density [kg/m3]
17.7 kPa	0.97
21.7 kPa	1.12
25.1 kPa	1.38
28.9 kPa	1.62
32.8 kPa	1.83
36.6 kPa	2.07
40.3 kPa	2.22
44.1 kPa	2.51
47.8 kPa	2.68
51.6 kPa	2.99
55.2 kPa	3.08
58.9 kPa	3.32
62.6 kPa	3.51
66.1 kPa	3.74
69.7 kPa	3.92
73.2 kPa	4.09
76.7 kPa	4.26
80.2 kPa	4.49
83.7 kPa	4.72
87.1 kPa	4.86
90.6 kPa	5.07
94.4 kPa	5.41
98.1 kPa	5.54
101.5 kPa	5.74
105.2 kPa	6.02
112.5 kPa	6.44
116.2 kPa	6.58
119.7 kPa	6.8
123.2 kPa	7
126.7 kPa	7.23
130.2 kPa	7.42
133.8 kPa	7.66
137.6 kPa	7.92
141.6 kPa	8.08
145.4 kPa	8.32
149.3 kPa	8.52
153.2 kPa	8.77
157.1 kPa	8.98
160.9 kPa	9.22
164.8 kPa	9.47
168.8 kPa	9.71
172.6 kPa	9.88
176.5 kPa	10.13
180.3 kPa	10.38
184.3 kPa	10.62
188.1 kPa	10.76
195.8 kPa	11.28
199.7 kPa	11.49
203.6 kPa	11.86
207.4 kPa	12.01
211.1 kPa	12.24
215 kPa	12.39
218.8 kPa	12.6
222.7 kPa	12.84
226.4 kPa	13.16
230.2 kPa	13.39
233.8 kPa	13.5
237.7 kPa	13.84
241.4 kPa	14.08
245.2 kPa	14.29
249 kPa	14.46
252.7 kPa	14.72
260.3 kPa	15.25
268.1 kPa	15.67
272.2 kPa	15.98
276.4 kPa	16.15
280.6 kPa	16.35
284.7 kPa	16.67
288.7 kPa	16.87
292.9 kPa	17.17
297.1 kPa	17.47
301.3 kPa	17.8
305.4 kPa	17.98
309.6 kPa	18.21
313.9 kPa	18.45
318 kPa	18.81
322 kPa	19
326.2 kPa	19.25
330.3 kPa	19.52
334.5 kPa	19.75
338.7 kPa	20.05
342.9 kPa	20.26
347 kPa	20.58
351.2 kPa	20.86
355.4 kPa	21.13
359.5 kPa	21.34
363.6 kPa	21.63
367.7 kPa	21.82
371.9 kPa	22.12
376 kPa	22.33
380 kPa	22.69
384.1 kPa	22.94
388.2 kPa	23.18
392.3 kPa	23.49
396.4 kPa	23.69
404.4 kPa	24.26
408.5 kPa	24.53
412.5 kPa	24.78
416.5 kPa	25
420.6 kPa	25.28
424.6 kPa	25.54
432.5 kPa	26.08
436.6 kPa	26.31
444.4 kPa	26.88
448.4 kPa	27.13
487.5 kPa	29.75
499 kPa	30.39
510.4 kPa	31.18
521.8 kPa	31.98
533.3 kPa	32.74
544.4 kPa	33.53
555.6 kPa	34.31
566.8 kPa	35.09
577.8 kPa	35.78
588.8 kPa	36.55
599.7 kPa	37.33
610.7 kPa	38.21
621.5 kPa	38.96
632.3 kPa	39.67
643 kPa	40.4
653.8 kPa	41.25
664.3 kPa	42.12
675 kPa	42.78
687.2 kPa	43.61
697.7 kPa	44.47
708.1 kPa	45.16
721.9 kPa	46.18
735.5 kPa	47.22
747.6 kPa	48.18
759.6 kPa	49.01
769.7 kPa	49.86
784.6 kPa	50.99
799.5 kPa	52.13
814.1 kPa	53.28
